From patent US20240132464A1, “HETEROCYCLIC COMPOUNDS AS E3 LIGASE INHIBITORS” (Accutar Biotechnology Inc., priority 2022, published 2024) come the findings set out here.

Each structure is given as a SMILES string.

The assay concerns the target T1, GID4 (Uniprot ID: Q81VV7, residues 124-289) (Homo sapiens, UniProt Q8IVV7).
T1 construct: GID4 (Uniprot ID: Q81VV7, residues 124-289)
T1 sequence (Q8IVV7 124-289): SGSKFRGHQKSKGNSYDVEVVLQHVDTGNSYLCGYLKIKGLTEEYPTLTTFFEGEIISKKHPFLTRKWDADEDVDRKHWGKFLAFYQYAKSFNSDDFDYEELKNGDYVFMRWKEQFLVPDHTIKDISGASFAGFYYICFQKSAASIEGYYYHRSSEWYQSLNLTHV
Put plainly: GID4 competitive binding assay (AlphaScreen, GID4/degron peptide PGLW). To be noted: 24 nM GID4, 48 nM biotinylated degron peptide PGLW, 4° C., read-out: IC50 (Inhibition of GID4/Degron binding by test compounds). The protocol: GID4 Competitive Binding Assay
GID4 binding affinity of compounds disclosed herein was measured by monitoring the interaction of GID4 with its degron peptide (PGLW) in the presence of the test compounds. A truncated version of GID4 (Uniprot ID: Q81VV7, residues 124-289) with a 6*His at its C-terminus was used in this assay. Tetrapeptide, PGLW, was synthesized and tagged with an additional lysine labeled with biotin at its sidechain.
GID4 competitive binding assays were performed in a 384-well plate at 4° C. in a 20 μL reaction volume. Briefly, 24 nM GID4 (final concentration) proteins were pre-incubated with 48 nM biotinylated degron peptide (final concentration) in an assay buffer containing 20 mM HEPES, pH 7.5, 100 mM NaCl, 1 mM DTT, 0.1% Tween-20, and 0.05% BSA in the presence of the test compound in 2% DMSO (final concentration) at various concentrations for 2 h. 5 ug/ml Streptavidin ALphaScreen donor beads and 5 ug/ml nickel chelate (Ni-NTA) ALphaScreen acceptor beads (PerkinElmer, 6760619C) (final concentrations) were then added to the mixture. After an incubation of 1 h at 4° C., the fluorescent signals were obtained on the EnVision® 2105 Multilabel Plate Reader (PerkinElmer).
Raw ALphaScreen data were converted to a percentage of inhibition (relative to DMSO) using the following equations: […]
For a given test compound concentration X:
Signal (X)=Signal (GID4 & peptide & compound)−Signal (GID4 & buffer & compound)
Percentage of inhibition at concentration X=[1−Signal(X)/Signal (DMSO)]*100% b)
The IC50 values were determined by nonlinear regression of plots of [inhibitor] vs. percentage of inhibition with variable slope.
Table 3 summarizes the inhibition of binding between GID4 and degron peptide with compounds of the present disclosure. Compounds were ranked into bins as follows for IC50: A indicates <500 nM; B indicates 500 nM-5000 nM; C indicates >5000 nM.
(Bead proximity is the source of the signal in Alpha formats.)
With `CC(C)c1cc(N2CCCC(O)(c3ccccc3Br)C2)nc(N)n1` (stereo not drawn) [Compound 236, 1-(2-amino-6-isopropylpyrimidin-4-yl)-3-(2-bromophenyl)piperidin-3-ol], the IC50 lay in the range of 500 to 5000 nM.

In the case of `CN(C)CCNC(=O)c1n[nH]c2ccc(-c3ccc4ccnc(N)c4c3)cc12` [Compound 341, 5-(1-aminoisoquinolin-7-yl)-N-(2-(dimethylamino)ethyl)-1H-indazole-3-carboxamide], the IC50 is below 500 nM.

As for `CC(C)c1cc(N2CCCC(O)(c3cnc4ccccn34)C2)nc(N)n1` (stereo not drawn) [Compound 243, 1-(2-amino-6-isopropylpyrimidin-4-yl)-3-(imidazo[1,2-a]pyridin-3-yl)piperidin-3-ol], the IC50 was above 5000 nM.

In the case of `Nc1nc2c(c(N3CCNC(c4ccccc4Br)C3)n1)CSC2` (stereo not drawn) [Compound 189, 4-(3-(2-bromophenyl)piperazin-1-yl)-5,7-dihydrothieno[3,4-d]pyrimidin-2-amine], the IC50 was above 5000 nM.

As for `Nc1nc(NC2CC2)cc(N2CCOC(c3ccccc3)C2)n1` (single isomer, unassigned) [Compound 96, (R/S)-N4-cyclopropyl-6-(2-phenylmorpholino)pyrimidine-2,4-diamine], the IC50 was above 5000 nM.

Regarding `CN1CCN(c2ccc(Br)c(C3CN(c4cc(N)nc(N)n4)CCN3)c2)CC1` (single isomer, unassigned) [Compound 50, R or S 6-(3-(2-bromo-5-(4-methylpiperazin-1-yl)phenyl)piperazin-1-yl)pyrimidine-2,4-diamine], the IC50 was below 500 nM.

Consider `CN(C)CCCNC(=O)c1ccc(-c2cc(O)c3ncccc3c2)cc1Br` [Compound 313, 2-bromo-N-(3-(dimethylamino)propyl)-4-(8-hydroxyquinolin-6-yl)benzamide], for which the IC50 fell in the range of 500 to 5000 nM.

As for `CNc1cc(N2CCN(C)[C@H](c3ccccc3Br)C2)nc(NC)n1` (stereo in doubt) [Compound 80, (R/S)-6-(3-(2-bromophenyl)-4-methylpiperazin-1-yl)-N2,N4-dimethylpyrimidine-2,4-diamine], the IC50 fell in the range of 500 to 5000 nM.

On to `CN1CCC(C)(NC(=O)c2n[nH]c3ccc(-c4ccc5ccnc(N)c5c4)cc23)CC1` [Compound 10, 5-(1-aminoisoquinolin-7-yl)-N-(1,4-dimethylpiperidin-4-yl)-1H-indazole-3-carboxamide], for which the IC50 is below 500 nM.

For the molecule `CC(C)c1cc(N2CCCC(c3ncn4ccccc34)C2)nc(N)n1` (stereo not drawn) [Compound 235, 4-(3-(imidazo[1,5-a]pyridin-1-yl)piperidin-1-yl)-6-isopropylpyrimidin-2-amine], the IC50 was below 500 nM.

Turning to `Nc1nccc2ccc(-c3ccc4[nH]nc(C(=O)N5CCC(N)CC5)c4c3)cc12` [Compound 339, (5-(1-aminoisoquinolin-7-yl)-1H-indazol-3-yl)(4-aminopiperidin-1-yl)methanone], the IC50 was below 500 nM.

For `CN(C)CCCNC(=O)c1ccc(-c2cc3cccnc3c(O)c2F)cc1` [Compound 308, N-(3-(dimethylamino)propyl)-4-(7-fluoro-8-hydroxyquinolin-6-yl)benzamide], the IC50 is below 500 nM.

For the molecule `Nc1nc(N2CCN[C@@H](c3ccccc3Br)C2)c2cc[nH]c2n1` (racemic) [Compound 57, (S/R)-4-(3-(2-bromophenyl)piperazin-1-yl)-7H-pyrrolo[2,3-d]pyrimidin-2-amine], the IC50 was 500 to 5000 nM.

On to `CNc1cc(N2CCC[C@H](c3ccccc3Br)C2)nc(NC)n1` (stereo in doubt) [Compound 83, (R/S)-6-(3-(2-bromophenyl)piperidin-1-yl)-N2,N4-dimethylpyrimidine-2,4-diamine], for which the IC50 is 500 to 5000 nM.

Regarding `CN(C)CCCNC(=O)c1cnc(-c2cc(O)c3ncccc3c2)cn1` [Compound 276, N-(3-(dimethylamino)propyl)-5-(8-hydroxyquinolin-6-yl)pyrazine-2-carboxamide], the IC50 is below 500 nM.

`CN(C)CCCNC(=O)c1c(Cl)cc(-c2cc(O)c3ncccc3c2)cc1Cl` [Compound 318, 2,6-dichloro-N-(3-(dimethylamino)propyl)-4-(8-hydroxyquinolin-6-yl)benzamide]: the IC50 is below 500 nM.

Take `Nc1nc(N)c(Cl)c(N2CCNC(c3ccccc3Br)C2)n1` (stereo not drawn) [Compound 68, 6-(3-(2-bromophenyl)piperazin-1-yl)-5-chloropyrimidine-2,4-diamine]: the IC50 is above 5000 nM.

Regarding `CC(C)c1cc(Nc2cccc(CC3CCNC3=O)c2)nc(N)n1` (stereo not drawn) [Compound 197, 3-(3-((2-amino-6-isopropylpyrimidin-4-yl)amino)benzyl)pyrrolidin-2-one], the IC50 was above 5000 nM.

On to `CC(C)c1cc(N2CCCC(c3cnn4ccccc34)C2)nc(N)n1` (stereo not drawn) [Compound 240, 4-isopropyl-6-(3-(pyrazolo[1,5-a]pyridin-3-yl)piperidin-1-yl)pyrimidin-2-amine], for which the IC50 is below 500 nM.

With `CN(C)CCCNC(=O)c1c[nH]c(-c2cc(O)c3ncccc3c2)n1` [Compound 277, N-(3-(dimethylamino)propyl)-2-(8-hydroxyquinolin-6-yl)-1H-imidazole-4-carboxamide], the IC50 was below 500 nM.

As for `CN(C)CCNC(=O)c1n[nH]c2ccc(-c3ccc4ncnc(N)c4c3)cc12` [Compound 329, 5-(4-aminoquinazolin-6-yl)-N-(2-(dimethylamino)ethyl)-1H-indazole-3-carboxamide], the IC50 lay within 500 to 5000 nM.

As to `CC(C)c1cc(N2CCNC(c3cc(C(=O)NCCN(C)C)ccc3Br)C2)nc(N)n1` (single isomer, unassigned) [Compound 20, R or S-3-(4-(2-amino-6-isopropylpyrimidin-4-yl)piperazin-2-yl)-4-bromo-N-(2-(dimethylamino)ethyl)benzamide], the IC50 fell in the range of 500 to 5000 nM.

For the molecule `Nc1cc(N2CCCC(c3cnc4ncccn34)C2)nc(N)n1` (stereo not drawn) [Compound 241, 6-(3-(imidazo[1,2-a]pyrimidin-3-yl)piperidin-1-yl)pyrimidine-2,4-diamine], the IC50 is above 5000 nM.

`CN(C)CCCNC(=O)c1ccc(-c2cc(O)c3ncccc3c2)c(Cl)c1` [Compound 317, 3-chloro-N-(3-(dimethylamino)propyl)-4-(8-hydroxyquinolin-6-yl)benzamide]: the IC50 is 500 to 5000 nM.

`CC(C)c1cc(N2CCCC(c3nn(C)c4ccccc34)C2)nc(N)n1` (stereo not drawn) [Compound 232, 4-isopropyl-6-(3-(1-methyl-1H-indazol-3-yl)piperidin-1-yl)pyrimidin-2-amine]: the IC50 is 500 to 5000 nM.

With `Nc1cc(N2CCCC(c3cnc4ccccn34)C2)nc(N)n1` (single isomer, unassigned) [Compound 115, (S/R)-6-(3-(imidazo[1,2-a]pyridin-3-yl)piperidin-1-yl)pyrimidine-2,4-diamine], the IC50 is above 5000 nM.

On to `CC(C)c1nc(N2CCCC(c3cnc4ccccn34)C2)c2nc[nH]c2n1` (stereo not drawn) [Compound 376, 6-(3-(imidazo[1,2-a]pyridin-3-yl)piperidin-1-yl)-2-isopropyl-9H-purine], for which the IC50 was below 500 nM.

As to `CN(C)CCCNC(=O)Cc1ccc(-c2cc(O)c3ncccc3c2)cc1` [Compound 288, N-(3-(dimethylamino)propyl)-2-(4-(8-hydroxyquinolin-6-yl)phenyl)acetamide], the IC50 was below 500 nM.

In the case of `Nc1nc(C2CC2)cc(N2CCCC(c3cnc4ccccn34)C2)n1` (stereo not drawn) [Compound 139, 4-cyclopropyl-6-(3-(imidazo[1,2-a]pyridin-3-yl)piperidin-1-yl)pyrimidin-2-amine], the IC50 is below 500 nM.

For the molecule `CC(C)c1cc(N2CCNC(c3cc(C(=O)N4CCN(C)CC4)ccc3Br)C2)nc(N)n1` (single isomer, unassigned) [Compound 18, (S/R)-(3-(4-(2-amino-6-isopropylpyrimidin-4-yl)piperazin-2-yl)-4-bromophenyl)(4-methylpiperazin-1-yl)methanone], the IC50 is 500 to 5000 nM.

For the molecule `Nc1cc(N2CCN(CCO)[C@H](c3ccccc3Br)C2)nc(NC2CC2)n1` (stereo in doubt) [Compound 70, (R/S)-2-(4-(6-amino-2-(cyclopropylamino)pyrimidin-4-yl)-2-(2-bromophenyl)piperazin-1-yl)ethan-1-ol], the IC50 was in the range of 500 to 5000 nM.

For `Nc1nc(NC2CC2)nc(N2CCN[C@@H](c3ccccc3Br)C2)n1` (stereo in doubt) [Compound 65, (S/R)-6-(3-(2-bromophenyl)piperazin-1-yl)-N2-cyclopropyl-1,3,5-triazine-2,4-diamine], the IC50 was 500 to 5000 nM.

As for `CNc1cc(N2CCN(C)[C@H](c3ccccc3Br)C2)nc(N)n1` (stereo in doubt) [Compound 154], the IC50 was 500 to 5000 nM.
